Source: paper PMC7481290, “Halogenation as a tool to tune antimicrobial activity of peptoids” (Scientific Reports, 2020)
Values after ≈ are worked out from the molar mass of the structure shown. Non-standard residues stand in square brackets, D forms with d. Residues, ends and D or L forms follow the SMILES beside them. N(4-Br-benzyl)Gly = O=C(O)CNCc1ccc(Br)cc1; NBzl(4-I)Gly = O=C(O)CNCc1ccc(I)cc1; Nphe = O=C(O)CNCc1ccccc1; Nlys = NCCCCNCC(=O)O

What was measured:
[1] = Critical aggregation concentration from SAXS fit analysis; format: physicochemical
Description: SAXS experiments of the 10-mer peptoids were performed at the automated BM29 bioSAXS beamline at the European Synchrotron Radiation Facility (ESRF) in Grenoble, France[45]. The data was obtained using an energy of 12.5 keV and a detector distance of 2.87 m, covering a q range ( q=4πsin(θ/2)/λ ), where θ is the scattering angle and λ is the X-ray wavelength) of about 0.0047 to 0.5 Å^−1. The data set was calibrated to an absolute intensity scale using water as a primary standard. 40 µL samples were run through a capillary using the flow mode of the automated sample changer. SAXS data was collected in ten successive frames of 0.5 s each to monitor radiation damage and the data reduction was done using the standard tool at BM29[47].
The SAXS experiments on the fully iodinated 6-, 8-, and 12-mers to determine the CAC of the compounds were performed using a Bruker NANOSTAR equipped with a microfocus X-ray source (IμS Cu, Incoatec, Germany) and a VÅNTEC-2000 detector. Raw scattering data was calibrated to absolute intensity scale using water as a primary standard and radially averaged in order to obtain the 1D scattered intensity profile as a function of the scattering vector, with a wavelength of 1.54 Å.
The modelling fit analysis of the scattering data is explained in detail in the supplementary information.

[2] = system: P. aeruginosa PA01 (H103); format: cell-based, Pseudomonas aeruginosa; conditions: H103, 18 h
Summary of the method: (§1)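 Broth microdilution per CLSI in MHB II, final inoculum 5 × 10^5 CFU/mL, with twofold peptoid dilutions. Incubation was 18 h at 37 °C in ambient air. MIC was taken as the lowest concentration without visible growth, from two experiments on different days in technical triplicate.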

[3] = system: Methicillin-resistant S. epidermidis ET-024; format: cell-based, Staphylococcus epidermidis; conditions: for Minimal inhibitory concentration MRSE^d: Methicillin-resistant ET-024, 18 h
Summary of the method: as §1

[4] = system: Methicillin-resistant S. epidermidis ATCC 51625; format: cell-based, Staphylococcus epidermidis; conditions: ATCC 51625, 18 h
Summary of the method: as §1

E. coli ATCC 25922 = format: cell-based, Escherichia coli; conditions: ATCC 25922, 18 h
Summary of the method: as §1

S. aureus ATCC 29213 = format: cell-based, Staphylococcus aureus; conditions: ATCC 29213, 18 h
Summary of the method: as §1

[5] = system: Methicillin-resistant S. aureus USA 300; format: cell-based, Staphylococcus aureus; conditions: USA 300, 18 h
Summary of the method: as §1

S. aureus ATCC 25923 = format: cell-based, Staphylococcus aureus; conditions: for Minimal inhibitory concentration SA^a: ATCC 25923, 18 h
Summary of the method: as §1

[6] = system: selected bacterial strains (S. aureus, S. epidermidis, E. coli, P. aeruginosa); format: cell-based; conditions: for MICs, range across strains: range matches Gram-positive strains of Table 1
Description: All 36 peptoids were tested against seven bacterial strains: five Gram-positive (Staphylococcus aureus ATCC 25923 and ATCC 29213, methicillin-resistant Staphylococcus aureus USA 300, methicillin-resistant Staphylococcus epidermidis ET-024 and ATCC 51625) and two Gram-negative (Escherichia coli ATCC 25922, Pseudomonas aeruginosa PA01) (Table 1).
Bacterial growth inhibition was determined by using broth microdilution according to the Clinical Laboratory Standards Institute[43]. The antibacterial activity of peptoids was tested against S. aureus ATCC 25923, ATCC29213, and methicillin resistant S. aureus USA 300, methicillin resistant S. epidermidis ATCC 51625, a biofilm producing methicillin resistant S. epidermidis ET-024[44], P. aeruginosa Pa01 (H103), and E. coli ATCC 25922. Bacteria, grown on agar plates for 18 h at 37 °C, were diluted to ∼1 × 10^8 CFU/mL in Mueller‐Hinton Broth II (MHB II). Twofold serial dilutions of peptoids in MHB II were inoculated with bacteria to achieve a final concentration of 5 × 10^5 CFU/mL in polypropylene 96 U‐well microtiter plates (Corning 3,897; ThermoFisher Scientific, Roskilde), followed by incubation at 37 °C in ambient air for 18 h. The MIC values were determined as the lowest concentration showing no visible bacterial growth. Experiments were performed twice (in technical triplicates) on 2 different days.

SMILES	critical aggregation concentration (CAC) [1]	Minimal inhibitory concentration PA^g [2]	Minimal inhibitory concentration MRSE^d [3]	Minimal inhibitory concentration MRSE^e [4]	Minimal inhibitory concentration EC^f (E. coli ATCC 25922)	Minimal inhibitory concentration SA^b (S. aureus ATCC 29213)	Minimal inhibitory concentration MRSA^c [5]	Minimal inhibitory concentration SA^a (S. aureus ATCC 25923)	antimicrobial potency against the selected bacterial strains, in words [6]	MICs, range across strains [6]	fold increase of activity against MRSE ([3]; versus non-halogenated control of same length, values match ET-024)	fold increase of activity against S. aureus (S. aureus ATCC 25923; versus non-halogenated control of same length)
NCCCCNCC(=O)N(CC(=O)N(CCCCN)CC(=O)N(CC(=O)N(CCCCN)CC(=O)N(CC(=O)N(CCCCN)CC(=O)N(CC(=O)N(CCCCN)CC(=O)N(CC(=O)N(CCCCN)CC(=O)N(CC(N)=O)Cc1ccc(I)cc1)Cc1ccc(I)cc1)Cc1ccc(I)cc1)Cc1ccc(I)cc1)Cc1ccc(I)cc1)Cc1ccc(I)cc1 [Compound 32] (H-[Nlys][NBzl(4-I)Gly][Nlys][NBzl(4-I)Gly][Nlys][NBzl(4-I)Gly][Nlys][NBzl(4-I)Gly][Nlys][NBzl(4-I)Gly][Nlys][NBzl(4-I)Gly]-NH2)	0.4 mg/mL	> 512 µg/mL	32 µg/mL (≈ 13.2 µM)	16 µg/mL (≈ 6.6 µM)	> 512 µg/mL	128 µg/mL (≈ 52.8 µM)	32 µg/mL (≈ 13.2 µM)	64 µg/mL (≈ 26.4 µM)	the activity was lost	–	–	–
NCCCCNCC(=O)N(CC(=O)N(CCCCN)CC(=O)N(CC(=O)N(CCCCN)CC(=O)N(CC(=O)N(CCCCN)CC(=O)N(CC(=O)N(CCCCN)CC(=O)N(CC(N)=O)Cc1ccc(I)cc1)Cc1ccc(I)cc1)Cc1ccc(I)cc1)Cc1ccc(I)cc1)Cc1ccc(I)cc1 [Compound 23] (H-[Nlys][NBzl(4-I)Gly][Nlys][NBzl(4-I)Gly][Nlys][NBzl(4-I)Gly][Nlys][NBzl(4-I)Gly][Nlys][NBzl(4-I)Gly]-NH2)	0.4 mg/mL	> 512 µg/mL	4 µg/mL (≈ 1.98 µM)	8 µg/mL (≈ 3.95 µM)	> 512 µg/mL	32 µg/mL (≈ 15.8 µM)	16 µg/mL (≈ 7.91 µM)	32 µg/mL (≈ 15.8 µM)	the activity was lost	–	–	–
NCCCCNCC(=O)N(CC(=O)N(CCCCN)CC(=O)N(CC(=O)N(CCCCN)CC(=O)N(CC(=O)N(CCCCN)CC(=O)N(CC(=O)N(CCCCN)CC(=O)N(CC(=O)N(CCCCN)CC(=O)N(CC(N)=O)Cc1ccccc1)Cc1ccccc1)Cc1ccccc1)Cc1ccccc1)Cc1ccccc1)Cc1ccccc1 [Compound 28] (H-[Nlys][Nphe][Nlys][Nphe][Nlys][Nphe][Nlys][Nphe][Nlys][Nphe][Nlys][Nphe]-NH2)	–	128 µg/mL (≈ 76.7 µM)	64 µg/mL (≈ 38.3 µM)	32 µg/mL (≈ 19.2 µM)	128 µg/mL (≈ 76.7 µM)	512 µg/mL (≈ 307 µM)	512 µg/mL (≈ 307 µM)	> 512 µg/mL	inactive	–	–	–
NCCCCNCC(=O)N(CC(=O)N(CCCCN)CC(=O)N(CC(=O)N(CCCCN)CC(=O)N(CC(=O)N(CCCCN)CC(=O)N(CC(=O)N(CCCCN)CC(=O)N(CC(N)=O)Cc1ccc(Br)cc1)Cc1ccccc1)Cc1ccc(Br)cc1)Cc1ccccc1)Cc1ccc(Br)cc1 [Compound 26] (H-[Nlys][N(4-Br-benzyl)Gly][Nlys][Nphe][Nlys][N(4-Br-benzyl)Gly][Nlys][Nphe][Nlys][N(4-Br-benzyl)Gly]-NH2)	> 5 mg/mL	512 µg/mL (≈ 314 µM)	1 µg/mL (≈ 0.613 µM)	1 µg/mL (≈ 0.613 µM)	256 µg/mL (≈ 157 µM)	4 µg/mL (≈ 2.45 µM)	8 µg/mL (≈ 4.91 µM)	4 µg/mL (≈ 2.45 µM)	–	1 to 8 µg/mL	–	–
NCCCCNCC(=O)N(CC(=O)N(CCCCN)CC(=O)N(CC(=O)N(CCCCN)CC(=O)N(CC(=O)N(CCCCN)CC(=O)N(CC(=O)N(CCCCN)CC(=O)N(CC(N)=O)Cc1ccc(Br)cc1)Cc1ccc(Br)cc1)Cc1ccc(Br)cc1)Cc1ccc(Br)cc1)Cc1ccc(Br)cc1 [Compound 22] (H-[Nlys][N(4-Br-benzyl)Gly][Nlys][N(4-Br-benzyl)Gly][Nlys][N(4-Br-benzyl)Gly][Nlys][N(4-Br-benzyl)Gly][Nlys][N(4-Br-benzyl)Gly]-NH2)	2.3 mg/mL	> 512 µg/mL	1 µg/mL (≈ 0.559 µM)	1 µg/mL (≈ 0.559 µM)	64 µg/mL (≈ 35.8 µM)	2 µg/mL (≈ 1.12 µM)	4 µg/mL (≈ 2.24 µM)	2 µg/mL (≈ 1.12 µM)	–	1 to 4 µg/mL	128 fold	> 256 fold
NCCCCNCC(=O)N(CC(=O)N(CCCCN)CC(=O)N(CC(=O)N(CCCCN)CC(=O)N(CC(=O)N(CCCCN)CC(=O)N(CC(=O)N(CCCCN)CC(=O)N(CC(N)=O)Cc1ccccc1)Cc1ccccc1)Cc1ccccc1)Cc1ccccc1)Cc1ccccc1 [Compound 19] (H-[Nlys][Nphe][Nlys][Nphe][Nlys][Nphe][Nlys][Nphe][Nlys][Nphe]-NH2)	> 5 mg/mL	512 µg/mL (≈ 367 µM)	128 µg/mL (≈ 91.8 µM)	128 µg/mL (≈ 91.8 µM)	256 µg/mL (≈ 184 µM)	> 512 µg/mL	> 512 µg/mL	> 512 µg/mL	inactive	–	–	–
